Values after ≈ are worked out from the molar mass of the structure shown. Active and inactive are the calls of the source. No cut-off for these calls is given here.
What was measured:
[1] = molecular target: T1, Serine/threonine-protein kinase pim-3 (Homo sapiens, UniProt Q86V86); experiment: Inhibition of human PIM3 using FITC-(AHX)RSRHSSYPAGT-COOH as substrate after 90 mins by mobility shift assay in presence of 50 uM ATP
[2] = molecular target: T2, Serine/threonine-protein kinase pim-1 (Homo sapiens, UniProt P11309); experiment: Inhibition of human PIM1 using FITC-(AHX)RSRHSSYPAGT-COOH as substrate after 90 mins by mobility shift assay in presence of 50 uM ATP
Target sequence in this assay (P11309 whole entry): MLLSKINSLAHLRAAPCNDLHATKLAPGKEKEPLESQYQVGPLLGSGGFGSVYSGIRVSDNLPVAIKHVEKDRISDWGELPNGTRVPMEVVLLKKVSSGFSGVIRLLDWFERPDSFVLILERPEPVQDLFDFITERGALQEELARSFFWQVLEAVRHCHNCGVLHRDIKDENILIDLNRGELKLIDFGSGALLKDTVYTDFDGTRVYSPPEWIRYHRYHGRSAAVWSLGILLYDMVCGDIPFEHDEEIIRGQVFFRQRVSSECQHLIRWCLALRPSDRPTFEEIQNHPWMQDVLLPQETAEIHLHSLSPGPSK

[3] = molecular target: T3, Serine/threonine-protein kinase pim-2 (Homo sapiens, UniProt Q9P1W9); experiment: Inhibition of human PIM2 using FITC-(AHX)RSRHSSYPAGT-COOH as substrate after 90 mins by mobility shift assay in presence of 50 uM ATP
Target sequence in this assay (Q9P1W9 whole entry): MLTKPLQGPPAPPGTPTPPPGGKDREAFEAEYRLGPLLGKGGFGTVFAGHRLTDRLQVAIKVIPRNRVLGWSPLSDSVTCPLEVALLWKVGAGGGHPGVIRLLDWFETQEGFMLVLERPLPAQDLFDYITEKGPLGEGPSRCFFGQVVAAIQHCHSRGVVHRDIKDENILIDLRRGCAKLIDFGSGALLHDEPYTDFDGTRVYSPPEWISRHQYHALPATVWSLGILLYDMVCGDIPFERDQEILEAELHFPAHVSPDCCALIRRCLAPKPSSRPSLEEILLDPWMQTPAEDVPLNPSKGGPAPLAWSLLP

[4] = molecular target: T2, Serine/threonine-protein kinase pim-1; experiment: Inhibition of human PIM1 using FITC-(AHX)RSRHSSYPAGT-COOH as substrate after 90 mins by mobility shift assay in presence of 5 mM ATP
Target sequence in this assay (P11309 whole entry): as the sequence (P11309 whole entry) above

[5] = molecular target: T3, Serine/threonine-protein kinase pim-2; experiment: Inhibition of human PIM2 using FITC-(AHX)RSRHSSYPAGT-COOH as substrate after 90 mins by mobility shift assay in presence of 5 mM ATP
Target sequence in this assay (Q9P1W9 whole entry): as the sequence (Q9P1W9 whole entry) above

[6] = Equilibrium solubility of the compound in phosphate buffer after 24 hrs at pH 7.4; type: physicochemical
[7] = molecular target: T1, Serine/threonine-protein kinase pim-3; experiment: Inhibition of human PIM3 using FITC-(AHX)RSRHSSYPAGT-COOH as substrate after 90 mins by mobility shift assay in presence of 5 mM ATP
[8] = molecular target: Voltage-gated inwardly rectifying potassium channel KCNH2 (Homo sapiens, UniProt Q12809); experiment: Inhibition of human ERG
[9] = Antiproliferative activity against human MOLM16 cells after 72 hrs by Cell Titer-Blue assay; type: functional; details: MOLM16, 72 h
in vitro = details: rat, liver microsomes
[10] = Dissociation constant, pKa of the compound; type: physicochemical
[11] = molecular target: Cyclin-dependent kinase 2 (Homo sapiens) (UniProt P24941); experiment: Inhibition of CDK2 at 1 uM
[12] = molecular target: T2, Serine/threonine-protein kinase pim-1; details: 1 uM
Target sequence in this assay (P11309 whole entry, looked up): as the sequence (P11309 whole entry) above

[13] = molecular target: T3, Serine/threonine-protein kinase pim-2; details: 1 uM
Target sequence in this assay (Q9P1W9 whole entry, looked up): as the sequence (Q9P1W9 whole entry) above

[14] = molecular target: Phosphatidylinositol 4,5-bisphosphate 3-kinase catalytic subunit gamma isoform (Homo sapiens) (UniProt P48736); experiment: Inhibition of PI3Kgamma at 1 uM
[15] = molecular target: T1, Serine/threonine-protein kinase pim-3; details: 1 uM

Sequence of Voltage-gated inwardly rectifying potassium channel KCNH2 (Q12809 whole entry): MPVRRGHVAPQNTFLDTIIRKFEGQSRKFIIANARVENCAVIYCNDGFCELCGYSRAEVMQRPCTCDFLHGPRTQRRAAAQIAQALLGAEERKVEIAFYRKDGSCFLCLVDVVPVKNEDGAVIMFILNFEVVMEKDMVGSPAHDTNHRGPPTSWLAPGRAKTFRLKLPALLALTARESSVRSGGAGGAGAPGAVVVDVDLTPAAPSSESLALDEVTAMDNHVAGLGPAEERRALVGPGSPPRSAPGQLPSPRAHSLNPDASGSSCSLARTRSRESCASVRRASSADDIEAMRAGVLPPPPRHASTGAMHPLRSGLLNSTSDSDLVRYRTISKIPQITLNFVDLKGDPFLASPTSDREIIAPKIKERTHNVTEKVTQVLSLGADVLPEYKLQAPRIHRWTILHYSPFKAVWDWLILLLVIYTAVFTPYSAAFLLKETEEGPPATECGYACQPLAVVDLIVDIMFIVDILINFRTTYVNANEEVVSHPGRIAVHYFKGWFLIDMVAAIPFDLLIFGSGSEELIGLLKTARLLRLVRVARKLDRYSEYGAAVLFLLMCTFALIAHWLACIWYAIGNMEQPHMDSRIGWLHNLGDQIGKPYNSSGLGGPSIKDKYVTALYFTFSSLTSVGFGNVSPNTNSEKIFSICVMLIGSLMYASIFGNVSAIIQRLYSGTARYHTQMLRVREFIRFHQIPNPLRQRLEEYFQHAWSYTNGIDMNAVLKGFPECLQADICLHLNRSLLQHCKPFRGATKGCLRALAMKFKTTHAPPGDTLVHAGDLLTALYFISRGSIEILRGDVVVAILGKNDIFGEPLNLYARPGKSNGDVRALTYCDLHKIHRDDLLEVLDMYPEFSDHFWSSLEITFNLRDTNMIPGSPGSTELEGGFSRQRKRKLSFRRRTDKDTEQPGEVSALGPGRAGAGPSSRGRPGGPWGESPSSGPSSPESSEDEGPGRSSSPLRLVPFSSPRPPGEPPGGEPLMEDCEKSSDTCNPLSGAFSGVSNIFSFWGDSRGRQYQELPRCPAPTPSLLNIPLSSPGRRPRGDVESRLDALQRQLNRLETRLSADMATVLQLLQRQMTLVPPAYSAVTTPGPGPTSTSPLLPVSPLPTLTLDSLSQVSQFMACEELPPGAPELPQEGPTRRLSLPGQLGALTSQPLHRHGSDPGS
Sequence of Phosphatidylinositol 4,5-bisphosphate 3-kinase catalytic subunit gamma isoform (Homo sapiens) (P48736 whole entry, looked up, canonical isoform): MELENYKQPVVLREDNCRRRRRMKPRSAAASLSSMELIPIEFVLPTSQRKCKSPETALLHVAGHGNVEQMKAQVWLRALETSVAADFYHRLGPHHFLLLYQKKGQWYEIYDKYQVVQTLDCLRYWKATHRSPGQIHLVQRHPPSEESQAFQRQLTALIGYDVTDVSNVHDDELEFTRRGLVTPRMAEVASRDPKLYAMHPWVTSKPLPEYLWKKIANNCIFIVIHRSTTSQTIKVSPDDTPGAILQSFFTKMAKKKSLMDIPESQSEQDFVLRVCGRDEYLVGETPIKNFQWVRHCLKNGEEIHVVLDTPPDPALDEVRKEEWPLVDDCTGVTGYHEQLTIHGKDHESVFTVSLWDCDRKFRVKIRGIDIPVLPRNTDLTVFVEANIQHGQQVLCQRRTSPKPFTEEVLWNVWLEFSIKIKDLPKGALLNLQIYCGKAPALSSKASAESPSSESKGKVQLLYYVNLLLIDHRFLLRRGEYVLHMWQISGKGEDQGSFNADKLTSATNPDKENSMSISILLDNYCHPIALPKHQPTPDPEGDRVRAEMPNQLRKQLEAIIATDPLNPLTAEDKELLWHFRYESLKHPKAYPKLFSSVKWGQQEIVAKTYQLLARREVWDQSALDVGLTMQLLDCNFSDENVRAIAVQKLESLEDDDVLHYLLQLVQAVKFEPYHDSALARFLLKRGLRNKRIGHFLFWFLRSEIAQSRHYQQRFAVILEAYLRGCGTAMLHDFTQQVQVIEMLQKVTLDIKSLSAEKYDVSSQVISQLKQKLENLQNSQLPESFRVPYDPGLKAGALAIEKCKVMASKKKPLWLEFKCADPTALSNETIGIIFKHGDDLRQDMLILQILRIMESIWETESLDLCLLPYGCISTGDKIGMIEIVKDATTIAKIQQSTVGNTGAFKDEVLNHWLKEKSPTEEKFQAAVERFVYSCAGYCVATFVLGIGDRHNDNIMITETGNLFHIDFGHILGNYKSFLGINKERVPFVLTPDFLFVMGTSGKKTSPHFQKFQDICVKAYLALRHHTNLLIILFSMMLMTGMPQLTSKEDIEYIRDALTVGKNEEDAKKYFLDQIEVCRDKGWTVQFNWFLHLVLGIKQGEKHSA

CCOc1cc(/C=C2\SC(=O)NC2=O)ccc1O
IC50 [1]: 390 nM
IC50 [2]: 160 nM
IC50 [3]: 160 nM

O=C1NC(=O)/C(=C/c2ccccc2N2CCNCC2)S1
IC50 [1]: 36 nM
IC50 [2]: 28 nM
IC50 [3]: 180 nM

N[C@@H]1CCCN(c2ccccc2/C=C2\SC(=O)NC2=O)C1
IC50 [1]: 9 nM
IC50 [4]: 100 nM
IC50 [2]: 9 nM
IC50 [5]: 1200 nM
solubility thermodynamic at 24 h [6]: 782 µM (≈ 237 µg/mL)
IC50 [7]: 240 nM
IC50 [3]: 14 nM
IC50 [8]: > 30000 nM
GI50 [9]: 490 nM

N[C@H]1CCN(c2ccccc2/C=C2\SC(=O)NC2=O)C1
IC50 [1]: 42 nM
IC50 [2]: 36 nM
IC50 [3]: 250 nM

CC(C)COc1cccc(/C=C2\SC(=O)NC2=O)c1N1CCC[C@@H](N)C1
IC50 [1]: < 3 nM
IC50 [4]: 8 nM
IC50 [2]: < 3 nM
microsomal CLint at 2 µM (in vitro): 6.9 µL/min/mg
IC50 [5]: 140 nM
solubility thermodynamic at 24 h [6]: 337 µM (≈ 127 µg/mL)
IC50 [7]: < 3 nM
IC50 [3]: < 4 nM
IC50 [8]: 23000 nM
GI50 [9]: 80 nM

CCOc1cccc(/C=C2\SC(=O)NC2=O)c1N1CCC[C@@H](N)C1
IC50 [1]: < 3 nM
IC50 [4]: 10 nM
IC50 [2]: < 3 nM
microsomal CLint at 2 µM (in vitro): 12.1 µL/min/mg
IC50 [5]: 160 nM
solubility thermodynamic at 24 h [6]: > 1000 µM
IC50 [7]: 6 nM
IC50 [3]: < 4 nM
GI50 [9]: 80 nM

COc1ccc(/C=C2\SC(=O)NC2=O)cc1OC
IC50 [1]: 280 nM
IC50 [2]: 950 nM
IC50 [3]: 2500 nM

N[C@H]1CCN(c2c(Cl)cccc2/C=C2\SC(=O)NC2=O)C1
IC50 [1]: < 5 nM
IC50 [2]: < 6 nM
IC50 [3]: 25 nM

CC(C)(C)OC(=O)N[C@H]1CCN(c2ccccc2/C=C2\SC(=O)NC2=O)C1
IC50 [1]: 3200 nM
IC50 [2]: 1500 nM
IC50 [3]: 15000 nM

CC(C)Oc1cccc(/C=C2\SC(=O)NC2=O)c1N1CCC[C@@H](N)C1
IC50 [1]: < 3 nM
IC50 [4]: < 4 nM
IC50 [2]: < 3 nM
microsomal CLint at 2 µM (in vitro): < 4.8 µL/min/mg
IC50 [5]: 50 nM
solubility thermodynamic at 24 h [6]: 378 µM (≈ 137 µg/mL)
IC50 [7]: < 3 nM
IC50 [3]: < 3 nM
GI50 [9]: 20 nM

CN(C)C1CCN(c2ccccc2/C=C2\SC(=O)NC2=O)C1 (configuration not stated)
IC50 [1]: 110 nM
IC50 [2]: 61 nM
IC50 [3]: 500 nM

O=C1NC(=O)/C(=C/c2cccc(Cl)c2N2CCNCC2)S1
IC50 [1]: 26 nM
IC50 [2]: 18 nM
IC50 [3]: 82 nM

O=C1NC(=O)/C(=C/c2ccccc2)S1
IC50 [1]: 730 nM
IC50 [2]: 890 nM
IC50 [3]: 4700 nM
pKa [10]: 6.14

N[C@@H]1CCCN(c2c(/C=C3\SC(=O)NC3=O)cccc2-c2ccccc2)C1
microsomal CLint at 2 µM (in vitro): < 4.8 µL/min/mg
solubility thermodynamic at 24 h [6]: 263 µM (≈ 99.8 µg/mL)
IC50 [8]: > 30000 nM
GI50 [9]: 20 nM

N[C@@H]1CCCN(c2c(Cl)cccc2/C=C2\SC(=O)NC2=O)C1
IC50 [1]: < 3 nM
IC50 [4]: 20 nM
IC50 [2]: < 3 nM
microsomal CLint at 2 µM (in vitro): 8.8 µL/min/mg
IC50 [5]: 310 nM
IC50 [7]: 20 nM
IC50 [3]: 5 nM
GI50 [9]: 190 nM

N[C@H]1CCN(c2cc(Cl)ccc2/C=C2\SC(=O)NC2=O)C1
IC50 [1]: 5 nM
IC50 [2]: 12 nM
IC50 [3]: 79 nM

N[C@@H]1CCCN(c2c(/C=C3\SC(=O)NC3=O)cccc2-c2ccncc2)C1
IC50 [1]: 4 nM
IC50 [4]: 4 nM
IC50 [2]: < 3 nM
IC50 [5]: 690 nM
solubility thermodynamic at 24 h [6]: 142 µM (≈ 54 µg/mL)
IC50 [7]: 38 nM
IC50 [3]: 19 nM
GI50 [9]: 2280 nM

COc1cccc(/C=C2\SC(=O)NC2=O)c1N1CCC[C@@H](N)C1
IC50 [1]: < 3 nM
IC50 [4]: 20 nM
IC50 [2]: < 3 nM
microsomal CLint at 2 µM (in vitro): 3.9 µL/min/mg
IC50 [5]: 320 nM
solubility thermodynamic at 24 h [6]: > 1000 µM
IC50 [7]: 10 nM
IC50 [3]: 5 nM
GI50 [9]: 210 nM

N[C@@H]1CCCN(c2c(Br)cccc2/C=C2\SC(=O)NC2=O)C1
IC50 [1]: < 3 nM
IC50 [4]: 10 nM
inhibition [11]: inactive
inhibition [12]: > 50%
IC50 [2]: < 3 nM
inhibition [13]: > 50%
inhibition [14]: inactive
microsomal CLint at 2 µM (in vitro): < 4.8 µL/min/mg
IC50 [5]: 150 nM
inhibition [15]: > 50%
solubility thermodynamic at 24 h [6]: > 720 µM
IC50 [7]: 10 nM
IC50 [3]: < 3 nM
IC50 [8]: > 30000 nM
GI50 [9]: 100 nM

From ChEMBL document CHEMBL2046384, “Discovery of novel benzylidene-1,3-thiazolidine-2,4-diones as potent and selective inhibitors of the PIM-1, PIM-2, and PIM-3 protein kinases” (Bioorg Med Chem Lett, 2012)
